Data as given in US20240300980A1, “HETEROCYCLIC COMPOUNDS AS KRAS INHIBITOR, AND PREPARATION THEREFOR AND USE THEREOF IN TREATMENT” (SHANGHAI KECHOW PHARMA, INC., priority 2021, published 2024).
Where two headings read alike, the source gives them in different places.

Tested on: AGS cells (KRAS^G12D)
Test: Detection of cell proliferation in vitro by MTT/MTS method (cell activity experiment)
Format: cell-based
Details: AGS cells, MTT/MTS, 3 days of drug treatment, read-out: AGS IC50
In short: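 KRAS G12D AGS cells seeded at 1000 per well, compound added 24 h later, 0.5% final DMSO. Viability read after 3 days of treatment by MTT (solubilised in DMSO) or MTS, 4 h, absorbance 490 nm. IC50 from dose–response curves versus DMSO control.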

Row | IC50 | SMILES | IC50 (Homo sapiens, AGS, 72 h)
1 | – | CCC1CCc2cc(O)cc(-c3c4c(c5c(N6C[C@H]7CC[C@@H](C6)N7)nc(OC[C@@]67CCCN6C[C@H](F)C7)nc5c3F)CCC4)c21 (stereo partly drawn) [Example 381, 7-(1-((1R,5S)-3,8-diazabicyclo[3.2.1]octan-3-yl)-5-fluoro-3-(((2R,7aS)-2-fluorotetrahydro-1H-pyrrolizin-7a(5H)-yl)methoxy)-8,9-dihydro-7H-cyclopenta[f]quinazolin-6-yl)-1-ethyl-2,3-dihydro-1H-inden-5-ol] | 75 nM
2 | – | Oc1cccc2cccc(C#Cc3ccc4c(N5C[C@H]6CC[C@@H](C5)N6)nc(OC[C@@]56CCCN5C[C@H](F)C6)nc4c3F)c12 [Example 364, 8-((4-((1R,5S)-3,8-diazabicyclo[3.2.1]octan-3-yl)-8-fluoro-2-(((2R,7aS)-2-fluorotetrahydro-1H-pyrrolizin-7a(5H)-yl)methoxy)quinazolin-7-yl)ethynyl)naphthalen-1-ol] | 811 nM
3 | – | N#Cc1c(OC[C@@]23CCCN2C[C@H](F)C3)nc2cc(-c3cc(O)cc4ccc(F)c(F)c34)ccc2c1N1C[C@H]2CC[C@@H](C1)N2 [Example 175, 4-((1R,5S)-3,8-diazabicyclo[3.2.1]octan-3-yl)-7-(7,8-difluoro-3-hydroxynaphthalen-1-yl)-2-(((2R,7aS)-2-fluorotetrahydro-1H-pyrrolizin-7a(5H)-yl)methoxy)quinoline-3-carbonitrile] | 1330 nM
4 | – | N#Cc1c(OC[C@@]23CCCN2C[C@H](F)C3)nc2cc(-c3cc(O)cc4cccc(F)c34)ccc2c1N1C[C@H]2CC[C@@H](C1)N2 [Example 176, 4-((1R,5S)-3,8-diazabicyclo[3.2.1]octan-3-yl)-7-(8-fluoro-3-hydroxynaphthalen-1-yl)-2-(((2R,7aS)-2-fluorotetrahydro-1H-pyrrolizin-7a(5H)-yl)methoxy)quinoline-3-carbonitrile] | 1340 nM
5 | – | CCc1cccc2cc(O)cc(-c3ccc4c(N5C[C@H]6CC[C@@H](C5)N6)nc(OCC5(CN6CCCC6)CC5)nc4c3F)c12 [Example 104, 4-(4-((1R,5S)-3,8-diazabicyclo[3.2.1]octan-3-yl)-8-fluoro-2-((1-(pyrrolidin-1-ylmethyl)cyclopropyl)methoxy)quinazolin-7-yl)-5-ethylnaphthalen-2-ol] | 57 nM
6 | – | C#Cc1c(F)ccc2cc(O)cc(-c3ncc4c(N5CC6CC(C5)N6)nc(OC[C@@]56CCCN5C[C@H](F)C6)nc4c3F)c12 [Example 45, 4-(4-(3,6-diazabicyclo [3.1.1]heptan-3-yl)-8-fluoro-2-(((2R,7aS)-2-fluorotetrahydro-1H-pyrrolizin-7a(5H)-yl)methoxy)pyrido[4,3-d]pyrimidin-7-yl)-5-ethynyl-6-fluoronaphthalen-2-ol] | 39 nM
7 | > 2500 nM | C#Cc1c(F)ccc2cc(O)cc(-c3ccc4c(N5C[C@H]6CC[C@@H](C5)[C@@H]6S(C)(=O)=O)nc(OC[C@@]56CCCN5C[C@H](F)C6)nc4c3F)c12 [Example 131, 5-ethynyl-6-fluoro-4-(8-fluoro-2-(((2R,7aS)-2-fluorotetrahydro-1H-pyrrolizin-7a(5H)-yl)methoxy)-4-((1R,5S, 8R)-8-(methylsulfonyl)-3-azabicyclo[3.2.1]octan-3-yl)quinazolin-7-yl)naphthalen-2-ol] | –
8 | – | C#Cc1c(F)ccc2cc(O)cc(-c3ccc4c(N5CCC6(CCCS6(=O)=O)CC5)nc(OC[C@@]56CCCN5C[C@H](F)C6)nc4c3F)c12 [Example 110, 8-(7-(8-ethynyl-7-fluoro-3-hydroxynaphthalen-1-yl)-8-fluoro-2-(((2R, 7aS)-2-fluorotetrahydro-1H-pyrrolizin-7a(5H)-yl)methoxy)quinazolin-4-yl)-1-thia-8-azaspiro [4.5]decane 1,1-dioxide] | > 2500 nM
9 | – | Oc1cc2c(c(-c3ncc4c(N5C[C@H]6CC[C@@H](C5)N6)nc(OC[C@@]56CCCN5C[C@H](F)C6)nc4c3F)c1)C(C(F)(F)F)CCC2 (stereo partly drawn) [Example 260, 4-(4-((1R,5S)-3,8-diazabicyclo[3.2.1]octan-3-yl)-8-fluoro-2-(((2R,7aS)-2-fluorotetrahydro-1H-pyrrolizin-7a(5H)-yl)methoxy)pyrido[4,3-d]pyrimidin-7-yl)-5-(trifluoromethyl)-5,6,7,8-tetrahydronaphthalen-2-ol] | 417 nM
10 | – | C#Cc1c(F)ccc2cccc(N3CCc4c(nc(OC[C@@]56CCCN5C[C@H](COC(=O)N(C)C)C6)nc4N4C[C@H]5CC[C@@H](C4)N5)C3)c12 [Example 211, ((2R,7aS)-7a-(((4-((1R,5S)-3,8-diazabicyclo[3.2.1]octan-3-yl)-7-(8-ethynyl-7-fluoronaphthalen-1-yl)-5,6,7,8-tetrahydropyrido[3,4-d]pyrimidin-2-yl)oxy)methyl)hexahydro-1H-pyrrolizin-2-yl)methyl dimethylcarbamate] | 55 nM
11 | – | C#Cc1c(F)ccc2cc(O)cc(-c3ccc4c(N5CCC6(CCCN6)CC5)nc(OC[C@@]56CCCN5C[C@H](F)C6)nc4c3F)c12 [Example 90, 5-ethynyl-6-fluoro-4-(8-fluoro-2-(((2R,7aS)-2-fluorotetrahydro-1H-pyrrolizin-7a(5H)-yl)methoxy)-4-(1,8-diazaspiro[4,5]decan-8-yl)quinazolin-7-yl)naphthalen-2-ol] | 8920 nM
12 | – | CCC1COc2cc(O)cc(-c3ccc4c(N5C[C@H]6CC[C@@H](C5)N6)nc(OC[C@@]56CCCN5C[C@H](F)C6)nc4c3F)c21 (stereo partly drawn) [Example 292, 4-(4-((1R,5S)-3,8-diazabicyclo[3.2.1]octan-3-yl)-8-fluoro-2-(((2R,7aS)-2-fluorotetrahydro-1H-pyrrolizin-7a(5H)-yl)methoxy)quinazolin-7-yl)-3-ethyl-2,3-dihydrobenzofuran-6-ol] | 40 nM
13 | – | CCC1CCCc2cc(O)cc(-c3cc4nc(OC[C@@]56CCCN5C[C@H](F)C6)nc(N5C[C@H]6CC[C@@H](C5)N6)c4c4occc34)c21 (stereo partly drawn) [Example 388, 4-(9-((1R,5S)-3,8-diazabicyclo[3.2.1]octan-3-yl)-7-(((2R,7aS)-2-fluorotetrahydro-1H-pyrrolizin-7a(5H)-yl)methoxy)furo[2,3-f]quinazolin-4-yl)-5-ethyl-5,6,7,8-tetrahydronaphthalen-2-ol] | 493 nM
14 | – | C#Cc1c(F)ccc2cc(O)cc(-c3ncc4c(N5CC6CCC(C5)C6F)nc(OC[C@@]56CCCN5C[C@H](F)C6)nc4c3F)c12 (stereo partly drawn) [Example 34, 5-ethynyl-6-fluoro-4-(8-fluoro-4-((1R,5S, 8R)-8-fluoro-3-azabicyclo [3.2.1]octan-3-yl)-2-(((2R,7aS)-2-fluorotetrahydro-1H-pyrrolizin-7a(5H)-yl)methoxy)pyrido[4,3-d]pyrimidin-7-yl) naphthalen-2-ol] | > 2500 nM
15 | – | CC1CCCc2cc(O)cc(-c3c(Cl)cc4c(N5C[C@H]6CC[C@@H](C5)N6)nc(OC[C@@]56CCCN5C[C@H](F)C6)nc4c3F)c21 (stereo partly drawn) [Example 301, 4-(4-((1R,5S)-3,8-diazabicyclo[3.2.1]octan-3-yl)-6-chloro-8-fluoro-2-(((2R,7aS)-2-fluorotetrahydro-1H-pyrrolizin-7a(5H)-yl)methoxy)quinazolin-7-yl)-5-methyl-5,6,7,8-tetrahydronaphthalen-2-ol] | 28 nM
16 | – | C#Cc1c(F)ccc2cc(O)cc(-c3ccc4c(N5C[C@H]6CC[C@@H](C5)N6)c(C(F)(F)F)c(OC[C@@]56CCCN5C[C@H](F)C6)nc4c3)c12 [Example 183, 4-(4-((1R,5S)-3,8-diazabicyclo[3.2.1]octan-3-yl)-2-(((2R,7aS)-2-fluorotetrahydro-1H-pyrrolizin-7a(5H)-yl)methoxy)-3-(trifluoromethyl)quinolin-7-yl)-5-ethynyl-6-fluoronaphthalen-2-ol] | > 2500 nM
